Like-named read-outs stand apart in the source and are kept apart here.
How the values were obtained:
MCAO/R rats = experiment: Therapeutic administration (i.v.) in middle cerebral artery occlusion/reperfusion (MCAO/R) rats; format: in vivo, rat; details: for Bleeding time / Brain water content (%) / Cerebral infarction rate (%) / Clotting time / Neurological function score: once a day for 3 days, mean ± SD, n = 8; for Neurological function score: modified Bederson score
Experimental: Male SD rats weighing 250 to 300 g were taken, and the rats in each group fasted for 12 hours before modeling, while water was not restricted. According to the method of Longa et al.^[1], a rat model of MCAO/R was established by occluding the blood flow of internal carotid artery using the thread embolization method. The rats were anesthetized with 3% chloral hydrate (300 mg/kg, 1 mL/100 g body weight) through intraperitoneal injection and fixed in the supine position on the operating table. A midline incision was made in the neck, and the right common carotid artery was isolated using forceps and threaded for later use. The external and internal carotid arteries were isolated from the bifurcation of the common carotid artery. A single thread was threaded through the internal carotid artery, and two threads were threaded through the external carotid artery. Both distal and proximal ends were ligated, and the middle part of the ligation site was cut using ophthalmic scissors. The proximal main trunk of the external carotid artery was isolated and reserved for later use. The prepared cotton thread was used to half-ligate the common carotid artery (tying a slipknot), and the thread prepared for the internal carotid artery was tightened with hemostatic forceps, temporarily occluding the blood flow of the internal carotid artery. A small incision at the proximal main trunk of the external carotid artery was made using ophthalmic scissors, and then, the fishing line was held with straight forceps, inserted from this incision, and slowly advanced through the isolated proximal main trunk of the external carotid artery towards the intracranial direction of the internal carotid artery. The advancement was stopped at a predetermined position, and then the thread of the internal carotid artery that was tightened with the hemostatic forceps was loosened. […] Another thread was threaded and tightened around the proximal main trunk of the external carotid artery and the fishing line that had already been inserted into the predetermined position. The half-ligated thread on the common carotid artery was then loosened, and the skin was subsequently sutured. After 2 hours of ischemia, a small section of the fishing line was pulled out. […] After rats in the blank control group were anesthetized, only the bifurcation of the internal and external carotid arteries was exposed without the occlusion of the MCA.
Successfully modeled rats (neurological function score of 3 after reperfusion) were taken and divided into 20 groups (8 rats for each) according to the random number table method. The groups were divided into a model control group, three dose groups (high, 12 mg/kg, 2.4 mg/mL; medium, 6 mg/kg, 1.2 mg/mL; low, 3 mg/kg, 0.6 mg/mL) for each of the six test compounds, and a positive drug Ozagrel group (6 mg/kg, 1.2 mg/mL), respectively. Both blank and model control groups were administered equal volumes of mixed solvents, and the rats in each group were administered by tail vein injection (i.v.) 2 hours after reperfusion, once a day for 3 consecutive days, with a volume of 0.5 mL/100 g body weight.
Ten minutes after the last administration, the neurological function of the animals was graded according to the modified Bederson scoring method. The standard is as follows[2]: • 0 point: no neurological symptoms; • 1 point: when the rat is suspended by lifting its tail, the forelimb on the surgical side of the rat was flexed and pressed against the chest wall; • 2 points: on a smooth plane, when the rat is pushed from the surgical side to the opposite side, the resistance is less than when it is moved to the same side; • 3 points: the animal moves around or in circles when moving freely; • 4 points: flaccid paralysis, no spontaneous movement of limbs.
After Bederson scoring, the rats were executed by cervical dislocation, and the whole brain was removed and weighed. After weighing, the whole brain was placed in a −20° C. refrigerator for 20 minutes. […]

[1] = Pharmacokinetics in SD rats after single IV and PO administration, plasma; format: in vivo; details: for Vd / AUC(0-inf) / AUC(0-t) / C0 / Cmax / Tmax / half-life / MRT last / MRT inf / bioavailability: Sprague-Dawley (SD), rat plasma; for Vd: rat, plasma, iv, 1 mg/kg; for MRT last: read-out: MRT(0−t); for MRT inf: read-out: MRT(0−∞); for bioavailability: PO 6 mg/kg vs IV 1 mg/kg
Experimental: The experimental method of administration by gavage injection in rats: SD rats weighing 180 to 220 g were fasted for 12 hours prior to the experiment, with free access to water. After administration, food and water were withheld for 4 hours. After this 4-hour period, the rats were allowed free access to water, and food was provided after 8 hours. The drugs were administered at a set dose. N=3, blood samples were taken before administration, and 5 minutes, 0.25 hours, 0.5 hours, 0.75 hours, 1 hour, 2 hours, 4 hours, 8 hours, and 24 hours after administration, respectively, and placed into sodium heparin anticoagulant tubes. The tubes were centrifuged for 1 hour at 4° C. and at 8000 rpm for 5 minutes, and the plasma was then separated and stored in centrifuge tubes at −70° C. for analysis. The experimental method of intravenous administration to rats: SD rats weighing 180 to 220 g were fasted for 12 hours prior to the experiment, with free access to water. After administration, food and water were withheld for 4 hours. After this 4-hour period, the rats were allowed free access to water, and food was provided after 8 hours. The drugs were administered at a set dose. N=3, blood samples were taken before administration, and 5 minutes, 0.25 hours, 0.5 hours, 0.75 hours, 1 hour, 2 hours, 4 hours, 8 hours, and 24 hours after administration, respectively, and placed into sodium heparin anticoagulant tubes. The tubes were centrifuged for 1 hour at 4° C. and at 8000 rpm for 5 minutes, and the plasma was then separated and stored in centrifuge tubes at −70° C. for analysis. The plasma concentration-time data were processed using the Phoenix® WinNonlin® 8.0 program to calculate pharmacokinetic parameters. Among them, Cmax and Tmax are measured values, the elimination rate constant k of the tail section of the C-t curve is obtained from the linear regression of LnC-t, and the value of AUC0-4 is calculated by the trapezoidal area method, and the area under the curve from 0 to ∞ time is AUC=AUC0-4+Ct/k. [table]

[2] = medium dose 6 mg/kg i.v. (Ozagrel group 6 mg/kg)

Structure (SMILES)	Bleeding time (MCAO/R rats; high dose 12 mg/kg i.v.)	Brain water content (%) (MCAO/R rats; high dose 12 mg/kg i.v.)	Cerebral infarction rate (%) (MCAO/R rats; high dose 12 mg/kg i.v.)	Clotting time (MCAO/R rats; high dose 12 mg/kg i.v.)	Neurological function score (MCAO/R rats; high dose 12 mg/kg i.v.)	Bleeding time (MCAO/R rats; low dose 3 mg/kg i.v.)	Brain water content (%) (MCAO/R rats; low dose 3 mg/kg i.v.)	Cerebral infarction rate (%) (MCAO/R rats; low dose 3 mg/kg i.v.)	Clotting time (MCAO/R rats; low dose 3 mg/kg i.v.)	Neurological function score (MCAO/R rats; low dose 3 mg/kg i.v.)	Bleeding time (MCAO/R rats; [2])	Brain water content (%) (MCAO/R rats; [2])	Cerebral infarction rate (%) (MCAO/R rats; [2])	Clotting time (MCAO/R rats; [2])	Neurological function score (MCAO/R rats; [2])	Vd ([1]; IV 1 mg/kg, read-out: Vss)	Vd ([1]; IV 1 mg/kg, read-out: Vz)	AUC(0-inf) ([1]; IV 1 mg/kg)	AUC(0-t) ([1]; IV 1 mg/kg)	C0 ([1]; IV 1 mg/kg)	further results
O=C(O)[C@@H]1C[C@H]1c1ccc(Cn2ccnc2)c(F)c1 [Compound 15, (1R,2R)-2-(4-((1H-Imidazol-1-yl)methyl)-3-fluorophenyl)cyclopropane-1-carboxylic acid]	289.63 ± 60.00 s	80.84 ± 1.40%	15.57%	163.13 ± 20.06 s	1.50 ± 0.53	281.38 ± 61.33 s	81.71 ± 1.64%	29.98 ± 5.52%	155.38 ± 41.85 s	2.38 ± 0.74	304.88 ± 43.01 s	81.19 ± 1.32%	21.57%	156.50 ± 31.15 s	1.75 ± 0.71	0.34 L/kg	0.38 L/kg	3440 ng·h/mL	3430 ng·h/mL	3710 ng/mL	Cmax ([1]; IV 1 mg/kg): 3160 ng/mL; Tmax ([1]; IV 1 mg/kg): 0.083 h; half-life ([1]; IV 1 mg/kg): 0.91 h; MRT last ([1]; IV 1 mg/kg): 1.14 h; MRT inf ([1]; IV 1 mg/kg): 1.16 h; AUC(0-inf) ([1]; PO 6 mg/kg): 80700 ng·h/mL; AUC(0-t) ([1]; PO 6 mg/kg): 78400 ng·h/mL; Cmax ([1]; PO 6 mg/kg): 18600 ng/mL; Tmax ([1]; PO 6 mg/kg): 1 h; half-life ([1]; PO 6 mg/kg): 1.51 h; bioavailability [1]: 381%; MRT last ([1]; PO 6 mg/kg): 2.57 h; MRT inf ([1]; PO 6 mg/kg): 2.79 h; T1/2 and AUC(0-∞) in the whole body blood circulation system as compared to that of Ozagrel ([1]; intravenously at 1 mg/kg): significantly increased; T1/2 and AUC(0-∞) in the whole body blood circulation system as compared to that of Ozagrel ([1]; orally at 6 mg/kg): significantly increased
O=C(O)[C@@H]1C[C@H]1c1ccc(Cn2cnc(F)c2)cc1F [Compound 17, (1R,2R)-2-(2-Fluoro-4-((4-fluoro-1H-imidazol-1-yl)methyl)phenyl)cyclopropane-1-carboxylic acid]	338.38 s	80.34 ± 1.65%	17.37%	163.00 ± 29.03 s	1.63 ± 0.74	290.75 ± 79.23 s	82.47 ± 3.03 %	30.61 ± 5.72%	141.25 ± 28.04 s	2.25 ± 0.71	307.50 ± 64.66 s	81.96 ± 2.16 %	22.75%	155.00 ± 29.81 s	1.88 ± 0.83	0.22 L/kg	0.27 L/kg	17600 ng·h/mL	17500 ng·h/mL	7320 ng/mL	cerebral edema in rats (MCAO/R rats; low and medium doses): did not significantly improve; Cmax ([1]; IV 1 mg/kg): 6840 ng/mL; Tmax ([1]; IV 1 mg/kg): 0.083 h; half-life ([1]; IV 1 mg/kg): 3.24 h; MRT last ([1]; IV 1 mg/kg): 3.8 h; MRT inf ([1]; IV 1 mg/kg): 3.91 h; AUC(0-inf) ([1]; PO 6 mg/kg): 179000 ng·h/mL; AUC(0-t) ([1]; PO 6 mg/kg): 178000 ng·h/mL; Cmax ([1]; PO 6 mg/kg): 27200 ng/mL; Tmax ([1]; PO 6 mg/kg): 2 h; half-life ([1]; PO 6 mg/kg): 2.96 h; bioavailability [1]: 169%; MRT last ([1]; PO 6 mg/kg): 4.16 h; MRT inf ([1]; PO 6 mg/kg): 4.25 h; T1/2 and AUC(0-∞) in the whole body blood circulation system as compared to that of Ozagrel ([1]; intravenously at 1 mg/kg): significantly increased; T1/2 and AUC(0-∞) in the whole body blood circulation system as compared to that of Ozagrel ([1]; orally at 6 mg/kg): significantly increased
